Earlier results, collected in patent US20170218035A1, “COMPOSITIONS AND METHODS FOR TREATMENT WITH HEMOPEXIN” (Bayer HealthCare LLC, priority 2014, published 2017).

Molecular target: T1, Hemopexin (plasma based glycoprotein) (Homo sapiens, UniProt P02790)
T1 sequence (P02790 24-462): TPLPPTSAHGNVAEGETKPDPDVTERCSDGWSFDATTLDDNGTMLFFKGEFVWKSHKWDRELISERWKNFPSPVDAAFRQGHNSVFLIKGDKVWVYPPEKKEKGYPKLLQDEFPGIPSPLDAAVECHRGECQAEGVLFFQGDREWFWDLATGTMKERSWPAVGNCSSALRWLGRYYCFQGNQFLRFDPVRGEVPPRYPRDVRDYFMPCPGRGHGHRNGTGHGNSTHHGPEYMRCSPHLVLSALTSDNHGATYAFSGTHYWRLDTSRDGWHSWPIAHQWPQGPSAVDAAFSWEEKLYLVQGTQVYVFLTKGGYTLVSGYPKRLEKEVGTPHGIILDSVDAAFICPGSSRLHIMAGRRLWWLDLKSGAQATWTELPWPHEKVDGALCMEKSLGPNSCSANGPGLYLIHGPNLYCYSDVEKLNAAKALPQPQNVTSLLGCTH
Conditions: highest known binding affinity for heme; reported value

Question: For `C=CC1=C(C)c2cc3[nH]c(cc4nc(cc5[nH]c(cc1n2)c(C)c5CCC(=O)O)C(CCC(=O)O)=C4C)c(C)c3C=C.[Fe]` [heme], which Kd is on record?
Answer: < 1 pM
